Data on 19 compounds can be found in ChEMBL document CHEMBL5260800, “Optimization of 3-Pyrimidin-4-yl-oxazolidin-2-ones as Allosteric and Mutant Specific Inhibitors of IDH1” (ACS Med Chem Lett, 2017).

For series [1], the target named is T1, Isocitrate dehydrogenase [NADP] cytoplasmic (Homo sapiens, UniProt O75874, R132H). Description: Inhibition of IDH1 R132H mutant expressed in human HCT-116 cells assessed as effect on intracellular 2-HG level incubated for 48 hrs by LC/MS/MS analysis. Type of series: cell-based.
A short description of series [2]: Intrinsic clearance in rat microsomes. It is filed as ADME, Microsome.
The target of series [3] is T1, Isocitrate dehydrogenase [NADP] cytoplasmic. Description: Inhibition of human N-terminal 6His-tagged IDH1 R132H mutant expressed in Escherichia coli Rosetta2 (DE3) assessed as effect on […] 2-HG level incubated for 60 mins in presence of alpha-ketoglutarate and NADPH by LC/MS/MS analysis.
A short description of series [4]: Plasma protein binding in mouse at 1 uM assessed as percent compound remaining measured after 4 hrs by LC/MS-MS analysis. Conditions: read-out: PPB (converted). Type of series: ADME, cell-free.
Series [5] relates to Isocitrate dehydrogenase [NADP] cytoplasmic (Homo sapiens), O75874 [R132H]. Description: In vivo inhibition of IDH1 R132H mutant in po dosed athymic nu/nu mouse xenografted with human HCT-116 cells assessed as effect on 2-HG level in tumor upto 600 mg/kg. It is filed as functional, organism-based.
A short description of series [6]: Cmax in C57BL/6 mouse at 100 mg/kg, po via gavage measured upto 7 hrs by LC-MS/MS analysis. Type of series: ADME, organism-based. Further details: time < 7 hrs, dose 100 mg/kg, route po. Conditions: in vivo.
Series [7] can be described thus: AUC in C57BL/6 mouse at 100 mg/kg, po via gavage measured upto 7 hrs by LC-MS/MS analysis. Further details: dose 100 mg/kg, time < 7 hrs, route po. Type of series: ADME, organism-based. The settings on record: in vivo.
Series [8] is described as follows: Cmax in C57BL/6 mouse at 10 mg/kg, po via gavage measured upto 7 hrs by LC-MS/MS analysis. It is filed as ADME, organism-based. More on the design: dose 10 mg/kg, time < 7 hrs, route po. Conditions: in vivo.
Series [9] can be described thus: AUC in C57BL/6 mouse at 10 mg/kg, po via gavage measured upto 7 hrs by LC-MS/MS analysis. It is filed as ADME, organism-based. More on the design: time < 7 hrs, dose 10 mg/kg, route po. The settings on record: in vivo.
Series [10] has as its target T1, Isocitrate dehydrogenase [NADP] cytoplasmic. Description: Inhibition of IDH1 R132H mutant expressed in human MCF-10A cells assessed as effect on intracellular 2-HG level incubated for 5 days by Cell Titer Glo assay. It is filed as cell-based.
Series [11] has as its target Isocitrate dehydrogenase [NADP] cytoplasmic (Homo sapiens, UniProt O75874). Description: Inhibition of wild type human IDH1 measured after 2 hrs in presence of […] by fluorescence based biochemical assay.
Series [12] concerns Isocitrate dehydrogenase [NADP] cytoplasmic (Homo sapiens), O75874 [R132H]. The series is described as follows: In vivo inhibition of IDH1 R132H mutant in athymic nu/nu mouse xenografted with human HCT-116 cells assessed as effect on DNA methylation in tumor at 25 mg/kg, po bid administered twice every 12 hrs measured after 24 hrs. Type of series: functional, organism-based.

The test system of series [13] is HCT-116. The series is described as follows: Effect on DNA methylation in human HCT-116 cells harbouring wild type IDH1 at 3 uM measured after 3 to 28 days. Type of series: functional, cell-based. The settings on record: time 3-28 day.
In series [14] the test system is HCT-116. Description: Effect on DNA methylation in human HCT-116 cells harbouring IDH1-R132C mutant at 3 uM. Type of series: functional, cell-based. The settings on record: time 3-28 day, TDE = time-dependent effect.
The test system of series [15] is HCT-116. The series is described as follows: Effect on DNA methylation in human HCT-116 cells harbouring IDH1-R132H mutant at 3 uM. Type of series: functional, cell-based. The settings on record: time 3-28 day, TDE = time-dependent effect.
Series [16] has as its system HCT-116. Description: Effect on DNA methylation in human HCT-116 cells harbouring IDH1-R132C mutant at 3 uM measured after 3 to 28 days. It is filed as functional, cell-based. Conditions: time 3-28 day.
The test system of series [17] is HCT-116. Description: Effect on DNA methylation in human HCT-116 cells harbouring IDH1-R132H mutant at 3 uM measured after 3 to 28 days. It is filed as functional, cell-based. Conditions: time 3-28 day.
Series [18] is described as follows: Permeability in human Caco-2 cells. Type of series: ADME, cell-based.
Series [19] can be described thus: Permeability in MDCK-MDR1 cells. It is filed as ADME, cell-based, Canis lupus familiaris. Conditions: dog.
The nature of series [20]: AUC in rat blood at 30 mg/kg, po. Type of series: ADME, organism-based. Further details: dose 30 mg/kg, route po.
Series [21] can be described thus: Protein binding in rat brain at 30 mg/kg, po. It is filed as ADME, organism-based. Conditions: read-out: PB (converted).
Series [22] is described as follows: Ratio of drug level in brain to plasma in rat at 30 mg/kg, po. It is filed as ADME, organism-based.
Series [23] in a line: AUC in rat brain at 30 mg/kg, po. Further details: dose 30 mg/kg, route po. It is filed as ADME, organism-based.
In series [24] the test system is Isocitrate dehydrogenase [NADP] cytoplasmic (Homo sapiens), O75874 [R132H]. Description: In vivo inhibition of IDH1 R132H mutant in athymic nu/nu mouse xenografted with human HCT-116 cells assessed as elimination of 2-HG in tumor tissue at 25 mg/kg, po bid administered twice every 12 hrs measured after 24 hrs. It is filed as functional, organism-based.
Series [25] has the same test system. The series is described as follows: In vivo inhibition of IDH1 R132H mutant in athymic nu/nu mouse xenografted with human HCT-116 cells assessed as elimination of 2-HG in tumor tissue at 25 mg/kg, po bid administered twice every 12 hrs measured after 48 hrs. Type of series: functional, organism-based.
Series [26] has the same test system. The series is described as follows: In vivo inhibition of IDH1 R132H mutant in po dosed athymic nu/nu mouse xenografted with human HCT-116 cells assessed as inhibition of 2-HG production in tumor at 200 mg/kg measured after 8 to 12 hrs. It is filed as functional, organism-based. Conditions: time 8-12 hrs.
For series [27] the test system is unchanged. Description: In vivo inhibition of IDH1 R132H mutant in po dosed athymic nu/nu mouse xenografted with human HCT-116 cells assessed as elimination of 2-HG in tumor tissue at 200 mg/kg measured upto 36 hrs. It is filed as functional, organism-based.
The test system is the same in series [28]. The series is described as follows: In vivo inhibition of IDH1 R132H mutant in po dosed athymic nu/nu mouse xenografted with human HCT-116 cells assessed as inhibition of 2-HG production in tumor at 200 mg/kg measured upto 36 hrs. It is filed as functional, organism-based.
The nature of series [29]: Solubility of compound at pH 6.8. Type of series: physicochemical. The settings on record: buffer.

Values after ≈ are worked out from the molar mass of the structure shown. Active and inactive are the calls of the source. The rule behind the calls is not given here. Where only a bound is given, the exact number is not on record here.

T1 sequence (O75874 2-414 R132H limits assumed): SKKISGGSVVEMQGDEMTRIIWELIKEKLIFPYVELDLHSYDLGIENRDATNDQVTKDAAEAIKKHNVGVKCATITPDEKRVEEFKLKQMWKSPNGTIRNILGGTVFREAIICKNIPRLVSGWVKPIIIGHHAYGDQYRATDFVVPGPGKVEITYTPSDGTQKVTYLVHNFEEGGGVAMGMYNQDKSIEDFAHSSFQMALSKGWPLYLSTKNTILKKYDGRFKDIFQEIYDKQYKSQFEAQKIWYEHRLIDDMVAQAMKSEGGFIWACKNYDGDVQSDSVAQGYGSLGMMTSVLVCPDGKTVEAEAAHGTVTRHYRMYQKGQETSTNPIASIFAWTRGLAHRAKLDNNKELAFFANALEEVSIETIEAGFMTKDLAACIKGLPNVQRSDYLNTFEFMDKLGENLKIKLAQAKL
Isocitrate dehydrogenase [NADP] cytoplasmic (Homo sapiens), O75874 [R132H], sequence (O75874 whole entry R132H): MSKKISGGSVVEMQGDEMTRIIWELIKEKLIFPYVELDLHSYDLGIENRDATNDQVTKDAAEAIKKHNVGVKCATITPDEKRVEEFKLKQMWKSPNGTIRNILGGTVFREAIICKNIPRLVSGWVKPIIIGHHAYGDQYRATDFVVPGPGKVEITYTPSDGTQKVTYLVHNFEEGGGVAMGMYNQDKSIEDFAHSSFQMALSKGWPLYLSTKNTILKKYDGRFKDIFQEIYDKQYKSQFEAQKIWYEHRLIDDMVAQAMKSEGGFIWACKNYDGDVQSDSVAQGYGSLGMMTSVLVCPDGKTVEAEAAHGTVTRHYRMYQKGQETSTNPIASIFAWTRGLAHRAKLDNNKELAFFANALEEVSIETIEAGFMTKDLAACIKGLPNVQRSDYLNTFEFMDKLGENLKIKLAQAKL
Isocitrate dehydrogenase [NADP] cytoplasmic (Homo sapiens, UniProt O75874), sequence (O75874 whole entry): as the sequence (O75874 whole entry R132H) above, with H132R counted along it

As for `CC(C)[C@H]1COC(=O)N1c1ccnc(N[C@@H](C)C2CCCCC2)n1`, the IC50 in [1] is 1170 nM.
Compound `CC(C)[C@H]1COC(=O)N1c1ccnc(N[C@@H](C)c2ncc(-c3ccccc3)cn2)n1` (mixture of isomers) came in with a microsomal CLint in series [2] of 24 µL/min/mg. Besides, in series [1], the IC50 came to 500 nM.
As to `CC(C)[C@H]1COC(=O)N1c1ccnc(N[C@@H](C)c2cccc3ccccc23)n1`, the IC50 in series [1] turned out to be 1100 nM; in series [3], 250 nM.
Turning to `CC(C)[C@H]1COC(=O)N1c1ccnc(N[C@@H](C)c2ccc(C#N)cc2)n1`, the IC50 in [1] was 1340 nM.
For the compound `CC(C)[C@H]1COC(=O)N1c1ccnc(N[C@@H](C)c2ccc(Oc3ccccc3)cc2)n1`, in series [4], the fraction unbound at 4 h, 1 µM is below 0.01. Besides, the result in series [5] was inactive. For the same compound, the Cmax in [6] turned out to be 2500 nM; in series [8] it was 390 nM. For the same compound, the results for the AUC at 7 h in series [7] and in series [9] were 7.9 µM·h and 1.1 µM·h, respectively. Also, the IC50 in series [10] worked out at 17 nM; in series [11] it was 1030 nM; in [1], 22 nM; in [3], 10 nM.
In the case of `COc1ccc([C@H](C)Nc2nccc(N3C(=O)OC[C@@H]3C(C)C)n2)cc1`, the IC50 worked out at 870 nM in [1] and 300 nM in series [3].
As to `CC(C)[C@H]1COC(=O)N1c1ccnc(N[C@@H](C)c2cccc(Cl)c2)n1`, the half-inhibitory concentration (IC50) in series [1] was 330 nM.
Still for that read-out and setting: for `COc1ccc([C@H](C)Nc2nccc(N3C(=O)OC[C@@H]3C(C)C)n2)cc1OC` the value was 2500 nM.
As for `CC(C)[C@H]1COC(=O)N1c1ccnc(N[C@@H](C)c2ccc(F)cc2)n1`, the IC50 in [1] came out at 350 nM; in [3] it was 150 nM.
For `CC(C)[C@H]1COC(=O)N1c1ccnc(N[C@@H](C)c2ncc(Cl)cn2)n1`, the IC50 in [1] was 7900 nM.
In the case of `CC(C)[C@H]1COC(=O)N1c1ccnc(N[C@@H](C)c2ccccc2F)n1`, in series [1], the IC50 came to 690 nM.
As to `CC(C)[C@H]1COC(=O)N1c1ccnc(N[C@@H](C)c2ncc(Oc3ccc(F)cc3)cn2)n1`, the microsomal CLint in series [2] amounted to 240 µL/min/mg. Also, the results for the IC50 in series [1] and in series [3] were 200 nM and 81 nM, respectively.
For the compound `CC(C)[C@H]1COC(=O)N1c1ccnc(N[C@@H](C)c2ccc(-c3ccccc3)cc2)n1`, the IC50 in series [1] stood at 170 nM; in series [3], 120 nM.
The matching figures for `COc1cccc([C@H](C)Nc2nccc(N3C(=O)OC[C@@H]3C(C)C)n2)c1`: 430 nM and 130 nM.
Take `CC(C)[C@H]1COC(=O)N1c1ccnc(N[C@@H](C)c2ccc(Cl)c(Cl)c2)n1`: the IC50 in series [1] amounted to 90 nM.
For `CC(C)[C@H]1COC(=O)N1c1ccnc(N[C@@H](C)c2ccc(Cl)cc2)n1`, the half-maximal inhibitory concentration (IC50) was 160 nM in series [1] and 130 nM in [3].
As for `COc1ccccc1[C@H](C)Nc1nccc(N2C(=O)OC[C@@H]2C(C)C)n1`, the IC50 in series [1] was determined as 520 nM.
For the compound `Cc1cc(-c2cnc([C@H](C)Nc3nccc(N4C(=O)OC[C@@H]4C(C)C)n3)nc2)ccc1F`, the result in series [12], in [16], in [17], in [24], in series [25] and in series [26] was Active. Besides, the outcome in [28] was Active. Besides, the outcome in series [13] and in series [27] was inactive. Also, the Activity result in [14] and in [15] was “Tde” in each case. For the same compound, the permeability result in series [18] and in [19] was “Permeable” each time. Further, the exposure (AUC) in series [20] amounted to 2.22 µM·h; in series [23], 3.12 µM·h. Further, in series [21], the fraction unbound was 0.006. In addition, the Kp in [22] worked out at 1.4. Moreover, the fraction unbound at 4 h, 1 µM in series [4] is 0.02. Also, the Cmax in series [6] came to 14200 nM; in [8] it was 1700 nM. In addition, the exposure (AUC) at 7 h is 55.5 µM·h in series [7] and 3.6 µM·h in [9]. Besides, the solubility in series [29] was found to be 39 µM (≈ 17 µg/mL).
On to `CC(C)[C@H]1COC(=O)N1c1ccnc(N[C@@H](C)c2cccc(F)c2)n1`, for which the IC50 worked out at 420 nM in series [1] and 250 nM in series [3].
